Source: PMC9486541, “Design, synthesis and cytotoxic evaluation of novel betulonic acid-diazine derivatives as potential antitumor agents” (Frontiers in Chemistry, 2022)

Tests used:
[1] = test system: MCF-7 cells; assay: DAPI staining of nuclear changes, MCF-7; type: cell-based, human; conditions: MCF-7 cells, 2, 4, 8 μM, 72 h
Protocol: Morphological observation of nuclear changes was performed by DAPI staining in this assay. MCF-7 cells in the logarithmic growth phase were seeded in 12-well plates at a density of 5 × 10^3 cells/well and were allowed to grow for 24 h. Then the cells were treated with different concentration ranges of BoA2C (0, 2, 4 8 μM) for 72 h. After the treatment period, cells were washed with PBS and fixed with 4% paraformaldehyde for 10 min. Then the liquid was discarded, and the cells were stained with DAPI (1 mg/ml, Molecular Probes/Invitrogen Life Technologies, Carlsbad, CA, United States) for 1 min in dark. After staining, cells were visualized under a fluorescence microscope (Olympus IX71, Tokyo, Japan).

[2] = test system: Bel-7402; assay: MTT assay, Bel-7402 cells; type: cell-based, human; conditions: Homo sapiens, Bel-7402, 72 h incubation, read-out: Half maximal inhibitory concentration (IC50) values, Bel-7402
Source text: (§1) The human hepatocellular carcinoma cell line (HepG2), human hepatocellular carcinoma cell line (Bel-7402), human cervical cancer cell line (Hela), human breast adenocarcinoma cell line (MCF-7) and Madin-Darby canine kidney cell line (MDCK) were obtained from the Chinese Academy of Medical Sciences and Peking Union Medical College. Cultures were maintained as monolayer in RPMI-1640/DMEM supplemented with 10% (v/v) fetal bovine serum (FBS) and 1% (v/v) penicillin/streptomycin (Thermo Technologies, New York, NY, United States) under a humidified atmosphere containing 5% CO2 at 37°C. The BoA derivatives and positive control drugs (BoA and DDP) under study were dissolved in DMSO (Sigma, St. Louis, MO, United States) and added at required concentrations to the cell culture. Cells incubated without the preparations served as the control.
(§2) The antitumor activity was assessed by MTT assay, as previously reported ([Fang et al., 2018]). Each tested compound and positive control drugs were dissolved in DMSO and diluted with the medium to the test concentrations, and the final concentration of DMSO in the culture medium was controlled at less than 0.5% (v/v). Briefly, cells were cultured at 37°C and dispersed in replicates in 96-well plates with HepG2, Bel-7402, HeLa, MCF-7 and MDCK for 24 h. Fresh medium along with compounds (BoAA-BoAE, BoA2A-BoA2G, BoA3A-BoA3G, BoA4A-BoA4G) at different concentrations was then added to individual wells and incubated for 72 h, with BoA and DDP as the positive control. Experiments on FXR expression were separated into three groups: Control (PBS), BoA2C (8 μM), and BoA2C (8 μM) + DY268 (10 μM) ([Giordano et al., 2016]), with three repeating wells in each. In separate wells, BoA2C and DY268 were introduced and cultured for 72 h. After 72 h, the cell was incubated with MTT solution (0.5 mg/ml) for an additional 4 h at 37°C. The produced formazan crystals were solubilized with DMSO, and the optical density of solution was measured at 570 nm using a plate reader (BIORAD 550 spectrophotometer, Bio-rad Life Science Development Ltd., Beijing, China). Wells without drugs were used to be blanks. The IC50 values were defined as the concentration of compounds that produced a 50% proliferation inhibition of surviving cells and calculated using the Graph Pad Prism 5. The inhibitory rate was calculated in the following Equation 1, where OD is the optical density: % inhibition=[1−(OD Sample group−OD Blank group)/(OD Control group−OD Blank group)]×100% (1)

[3] = test system: MCF-7 cells; assay: Wound healing assay; type: cell-based, human; conditions: 8 μM, 0, 24, 48 h, compared to control group
Protocol: MCF-7 cells were seeded in six-well plates at a density of […] and incubated at 37°C to achieve 100 percent confluence. After starving the cells for 24 h, a wound (cell-free) was drawn across the center of the well using the tip of a 1 ml plastic pipette. Wells were cleaned twice with PBS before being treated for 48 h with BoA2C (8 μM). At 0 h, 24 h, and 48 h, cells were viewed and photographed in randomly selected fields using an inverted light microscope (Nikon).

[4] = test system: Hela; assay: MTT assay, Hela cells; type: cell-based, human; conditions: Homo sapiens, HeLa, 72 h incubation, read-out: Half maximal inhibitory concentration (IC50) values, Hela
Source text: as §1, §2

[5] = test system: MDCK cells; assay: DAPI staining of nuclear changes, MDCK; type: cell-based, canine; conditions: MDCK cells, 2, 4, 8 μM

In the case of C=C(C)[C@@H]1CC[C@]2(C(=O)OCCOC(=O)c3cnc(C)cn3)CC[C@]3(C)[C@H](CC[C@@H]4[C@@]5(C)CCC(=O)C(C)(C)[C@@H]5CC[C@]43C)[C@@H]12 [BoA2C, (5-Methylpyrazin-2-acyloxy)-ethyl-3-oxolup-20(29)-en-28-oate], the “nuclear morphological changes (DAPI staining)” value [1] is reported as “nuclear morphological changes typical of apoptosis in a dose-dependent manner”, the melting point is reported as 139 to 141 °C and the IC50 [2] is reported as 3.65 ± 0.43 µM. For the same molecule, the “migration of cells in the scratch wound” value [3] was “obviously reduced the migration of MCF-7 cells”, the IC50 [4] was 15.6 ± 2.63 µM and the “nuclear damage (DAPI staining)” value [5] was “did not show a significant nuclear damage”.
